Columns and labels:
[1] = target: T1, Leukotriene A-4 hydrolase (Homo sapiens, UniProt P09960); assay: In vitro inhibition of recombinant human leukotriene A4 hydrolase.
T1 sequence (P09960 whole entry): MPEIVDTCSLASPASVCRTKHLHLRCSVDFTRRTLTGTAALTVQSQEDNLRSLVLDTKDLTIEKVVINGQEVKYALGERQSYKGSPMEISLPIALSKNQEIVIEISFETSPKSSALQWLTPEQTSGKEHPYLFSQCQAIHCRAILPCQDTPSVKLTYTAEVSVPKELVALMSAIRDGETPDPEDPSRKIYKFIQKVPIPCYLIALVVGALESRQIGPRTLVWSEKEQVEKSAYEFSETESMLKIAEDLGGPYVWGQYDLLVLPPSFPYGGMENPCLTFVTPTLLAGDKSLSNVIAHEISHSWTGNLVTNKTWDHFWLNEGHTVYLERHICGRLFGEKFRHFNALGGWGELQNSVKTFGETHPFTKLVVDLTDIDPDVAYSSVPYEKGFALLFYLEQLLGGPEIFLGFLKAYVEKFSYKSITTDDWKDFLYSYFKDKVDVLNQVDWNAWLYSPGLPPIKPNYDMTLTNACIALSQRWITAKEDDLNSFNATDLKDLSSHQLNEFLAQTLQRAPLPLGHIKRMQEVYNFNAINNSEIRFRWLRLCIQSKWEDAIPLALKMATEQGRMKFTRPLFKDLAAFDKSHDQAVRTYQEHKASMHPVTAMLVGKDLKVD

[2] = system: Mus musculus; assay: Ex vivo inhibition of LTB4 production in mouse whole blood following 10 mg/kg p.o. administration.; format: functional; conditions: route oral
[3] = species on record: Homo sapiens; assay: Inhibition of LTB4 production from whole human blood.; format: functional

SMILES | IC50 [1] [nM] | inhibition in vivo at 10 mg/kg [2] [%] | IC50 [3] [nM]
N#Cc1nccc2c1ncn2CCOc1ccc(Cc2ccccc2)cc1 | 31 | 84 | 100
c1ccc(Cc2ccc(OCCn3cccc4ncnc3-4)cc2)cc1 | – | – | 690
c1ccc(Cc2ccc(OCCn3cnc4cccnc43)cc2)cc1 | > 3000 | – | 9150
c1ccc(Cc2ccc(OCCn3cnc4ccccc43)cc2)cc1 | – | 46 | 13200
N#Cc1ccc2c(ncn2CCOc2ccc(Cc3ccccc3)cc2)n1 | 0.8 | 21 | 150
c1ccc(Cc2ccc(OCCn3cnc4ncccc43)cc2)cc1 | – | 18 | 330
Oc1ccc2ncn(CCOc3ccc(Cc4ccccc4)cc3)c2n1 | 500 | 72 | 940
c1ccc(Cc2ccc(OCCn3cnc4cnccc43)cc2)cc1 | – | 64 | 330

— ChEMBL document CHEMBL1136655, “Synthesis of imidazopyridines and purines as potent inhibitors of leukotriene A4 hydrolase” (Bioorg Med Chem Lett, 2003)
